Measurements reported in patent US11787840B2, “Compositions and methods for treating and preventing autoimmune induced cardiac long QT syndrome” (The United States Government As Represented By The …, priority 2019, dated 2023).
“Also recorded” adds a separate entry of the source.

Test system: Ro52-immunized guinea-pigs (anti-Ro Abs associated QTc prolongation)
Test: QTc (ECG) in Ro52-immunized guinea pigs after linear peptide 4
Type: in vivo, guinea pig
Conditions: linear peptide 4, 2 mg/kg, one-time injection at day 15; ECG through day 30; versus immunized control without peptide
Source text: Immunization and peptide administration protocol. The overall experimental protocol for immunization and administration of the peptide used to generate data in FIG. 2 is shown in FIG. 6. Specifically, two group of guinea pigs (control and experimental) were first immunized subcutaneously initially on day 0 (Do) with Ro52 antigen followed by a booster at days 10 and 15, and anti-Ro antibodies levels were monitored by ELISA. The control group was not administered any peptide treatment except the immunization. The experimental group was injected with the linear peptide #4 (2 mg/kg) at day 15.

GNMEQPHMDSRIGWLHNLGDQ [Peptide 4]
effect on QTc interval: rescued and normalized the QTc interval; also recorded: drastic shortening of QTc
